In US6596497B1, “Screening of antiviral compounds targeted to the HIV-1 gp41 core structure” (New York Blood Center, Inc., priority 1999, dated 2003):
≈ marks a conversion by molar mass, not a printed value.

What was measured:
[1] = molecular target: T1, preformed N36/C34 complex (Human immunodeficiency virus type 1 group M subtype B, UniProt P04578); experiment: Control ELISA: NC-1 binding to preformed complex in the presence of compound; set-up: species or system HIV-1; conditions: different concentrations of compound
T1 construct: Peptides derived from the NHR and CHR regions of gp41, designated N- and C-peptides; made in house; host or cells: chemical synthesis (solid-phase FMOC)
T1 sequence (P04578 546-581, one chain of several): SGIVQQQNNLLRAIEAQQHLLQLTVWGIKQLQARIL
Source text: The position might be taken that ADJ-J1, selected by a sandwich ELISA, may not block the complex formation by N- and C-peptides, but instead block NC-1 binding to the complex, either due to its association with MAb NC-1 or with the N36/C34 complex. The first possibility was excluded, since the antibody-coated wells of the plastic plates were extensively washed after addition of the mixture of N36, ADS-J1 and C34 and before. addition of MAb NC-1, excluding the presence of unbound ADS-J1, which could bind to MAb NC-1. To determine whether or not ADS-J1 binds to the surface of the N36/C34 complex and blocks NC-1 binding, a control experiment was conducted in which the complex In was preformed by mixing N36 and C34 at equimolar concentrations and captured to the wells of plastic plates coated with rabbit antibody directed against N36/C34 complex. Then, the binding of MAb NC-1 to the preformed complex in the presence of ADS-J1 at different concentrations was determined.

HIV-1IIIB = experiment: HIV-1-mediated cytopathic effect (CPE), XTT; format: cell-based; conditions: for Selective Index (S.I.) = CC50/IC50 for CPE / IC50 ± SD CPE: MT-2 cells; for IC50 ± SD CPE: sixth day post infection
Protocol: The inhibitory activity of the compounds was determined by a calorimetric method based on protection of cells against HIV-1-mediated CPE, as described in Jiang et al., (1991), J. Exp. Med., 174, 1557-1563. 1×10^4 MT-2 cells in 96-well plates were infected with diluted HIV-1IIIB in 200 μl RPMI 1640 medium containing 10% FBS in the presence of compounds at graded concentrations. After 1 hour, 24 hours and 4 days, half of the culture media were changed. On the sixth day post infection, an indicator, XTT tetrazolium dye (1 mg/ml; 50 μl/well; PolySciences, Inc., Warrington, Pa.), was added to the cells. After 4 hours, the soluble intracellular formazan was determined calorimetrically at 450 nm. The percent of inhibition of CPE and the IC50 values were calculated as described above.

MT-2 cells = experiment: In vitro cytotoxicity, XTT; format: cell-based
Protocol: The in vitro cytotoxicity for MT-2 cells of the compounds was determined in 96-well plates using the XTT dye to measure cell viability in the absence of virus. Ten μl of 5% TRITON X-100 were added to the wells corresponding to positive controls (“P”) and 10 μl medium was added to wells corresponding to negative controls (“N”). The percent cytotoxicity was calculated using the following formula: % cytotoxicity=[(E−N)/(P−N)]×100%, wherein “E” represents experimental data in the presence of compounds. The concentration corresponding to 50% cytotoxicity (CC50) for MT-2 cells was calculated using the Calcusyn computer program. The selectivity index (S.I.=CC50/IC50) for each compound was calculated.

[2] = test system: H9/HIV-1IIIB cells and MT-2 cells; experiment: cells; format: cell-based; conditions: for IC50 ± SD Cell fusion: 37° C., 2 hours; for Inhibitory activity on HIV-1-mediated cell fusion (in words): no concentration stated
Protocol: A dye transfer assay was used for detection of HIV-1-mediated cell fusion as described in Jiang et al., Nature, 365, 113 (1993). H9/HIV-1IIIB cells were labeled with a fluorescent reagent, 2′,7′-bis-(2-carboxyethyl)-5-and-6-carboxyfluorescein acetoxyethyl ester (BCECF-AM), (Molecular Probes, Inc., Eugene, Oreg.) and incubated with MT-2 cells (ratio=1:10) in a 96-well plate at 37° C. for 2 hours in the presence or absence of peptides or compounds tested. The fused and unfused BCECF-labeled HIV-1 infected cells were counted under an inverted fluorescence microscope (Zeiss, Germany) with an eyepiece micrometer discs. The percentage of inhibition of cell fusion was calculated as described in Jiang et al., 1993, Nature, 365, 113.
A dye transfer assay was used for detection of HIV-1 mediated cell fusion as described in Jiang, S., K. Lin, N. Strick, and A. R. Neurath, 1993, Inhibition of HIV-1 infection by a fusion domain binding peptide from HIV-1 envelope glycoprotein gp41, Biochem. Biophys. Res. Commun., 195, 533-538.
H9/HIV-1IIIB cells were labeled with a fluorescent reagent, 2′,7′-bis-(2-carboxyethyl)-5-and-6-carboxyfluorescein acetoxyethyl ester (BCECF-AM) (Molecular Probes, Inc., Eugene, Oreg.) and then incubated with MT-2 cells (ratio=1:10) in 96-well plates at 37° C. for 2 hours in the presence or absence of the compounds tested. The fused and unfused BCECF-labeled HIV-1 infected cells were counted under an inverted fluorescence microscope (Zeiss, Germany) with an eyepiece micrometer disc. The percentage of inhibition of cell fusion and the IC50 values were calculated as described in Jiang et al., (1993), Biochem. Biophys. Res. Commun., 195, 533-538.

[3] = molecular target: T2, N-36/C-34 complex (HIV-1 gp41 core) (Human immunodeficiency virus type 1 group M subtype B, UniProt P04578); experiment: biochemical; format: binding; conditions: for IC50 ± SD NC-1 binding: N-36 2 μM preincubated with compound, then C-34 2 μM; for Inhibitory activity on complex formation by N-36 and C-34 (in words): no concentration stated
T2 construct: Peptides derived from the NHR and CHR regions of gp41, designated N- and C-peptides; made in house; host or cells: chemical synthesis (solid-phase FMOC)
T2 sequence (P04578 546-581, one chain of several): as above
Protocol: For detection of peptide complexes, a direct and a sandwich ELISA were used. In the direct ELISA, the N- and C-peptides were mixed at equimolar concentration in PBS and diluted in coating buffer. Then, the peptide complexes were directly coated onto the wells of microplate. In the sandwich ELISA, the plate was coated with IgG (10 μg/ml) purified from rabbit antisera directed against N36(L6)C34, followed by the addition of the peptide complexes formed by mixing N- and C-peptides in PBS in equimolar concentrations. To screen for antiviral agents, compounds were pre-incubated with N-peptides at 37° C. for 30 minutes before mixing with the C-peptides. The binding of the peptide complexes to the antibodies was then detected as described above.
The percentage of inhibition by the compounds of the binding of NC-1 to the peptide complexes was calculated as described in Jiang, S., K. Lin, and A. R. Neurath, 1991, “Enhancement of human immunodeficiency virus type-1 (HIV-1) infection by antisera to peptides from the envelope glycoproteins gp120/gp41”, J. Exp. Med., 174, 1557-1563.
A sandwich ELISA was established to screen for compounds that interfere with the formation of the N-36/C-34 complex. N-36 (2 μM) was preincubated with compounds at graded concentrations at 37° C. for 30 minutes, followed by the addition of C-34 (2 μM). After incubation at 37° C. for 30 minutes, the mixture was added to wells of a 96-well polystyrene plate (Immulon I, Dynatech Laboratories, Inc., Chantilly, Va.) which were precoated with IgG (10 μg/ml) purified from rabbit antisera directed against N36(L6)C34. […] Absorbance at 450 nm (A450) was read using an ELISA reader (Dynatech Laboratories, Inc., Chantilly, Va.). The percentage of inhibition by the compounds of the binding of NC-1 to the peptide complexes was calculated as described in Jiang S., K. Lin, and A. R. Neurath, 1991, “Enhancement of human immunodeficiency virus type-1 (HIV-1) infection by antisera to peptides from the envelope glycoproteins gp120/gp41”, J. Exp. Med., 174, 1557-1563. The concentration for 50% inhibition (IC50) was calculated using a computer program, designated Calcusyn (Chou, T.-C., 1991, “The median-effect principle and the combination index for quantitation of synergism and antagonism. In Synergism and Antagonism in Chemotherapy”, T.-C. Chou and D. C. Rideout, editors, Academic Press, San Diego, 61-102).

Row | Compound | Blocking of NC-1 binding to the preformed N36/C34 complex [1] | Selective Index (S.I.) = CC50/IC50 for CPE (HIV-1IIIB) | IC50 ± SD CPE (HIV-1IIIB) [µg/mL] | Inhibitory activity on HIV-1-mediated CPE (in words) (HIV-1IIIB; no concentration stated) | CC50 ± SD (MT-2 cells) [µg/mL] | IC50 ± SD Cell fusion [2] [µg/mL] | Inhibition of HIV-1-mediated cell fusion (in words) ([2]; compounds at 10 μg/ml, FIG. 13) | Inhibitory activity on HIV-1-mediated cell fusion (in words) [2] | Inhibitory activity on HIV-1-mediated cell fusion (in words) ([2]; listed as ADJ-1) | IC50 ± SD NC-1 binding [3] [µg/mL] | Inhibition of NC-1 detectable complex formation by N-36 and C-34 (in words) ([3]; compounds at 10 μg/ml, FIG. 13) | Inhibitory activity on complex formation by N-36 and C-34 (in words) [3] | Inhibitory activity on complex formation by N-36 and C-34 (in words) ([3]; listed as ADJ-1)
1 | 7-[6-phenylamino-4-[4-[(3,5-disulfo-8-hydroxynaphthyl)azo]-2-methoxy-5-methylphenylamino]-1,3,5-triazine-2-yl]-4-hydroxy-3-[(2-methoxy-5-sulfophenyl)azo]-2-naphthalene sulfonic acid [ADS-J1] | unable to block | 35.24 | 8.29 ± 1.13 | promising inhibitory activity | 292.16 ± 2.27 | 4.95 ± 1.31 | completely inhibited | promising inhibitory activity | most potent inhibitory activity | 0.73 ± 0.08 | completely inhibited | promising inhibitory activity | most potent inhibitory activity
2 | Cc1ccc(C(=O)Nc2cccc(C(=O)N/N=C/c3ccc(Br)cc3)c2)cc1 [ADS-J3] |  | ≦1.00 | >100 |  | 24.91 ± 2.62 (≈ 57.1 µM) | >100 |  |  |  | >100 |  |  | 
3 | COc1ccc2c(c1)CCC/C2=N\OC(=O)Nc1ccccc1-c1ccccc1 [ADS-J8] |  | ≦1.00 | >100 |  | 46.83 ± 4.93 (≈ 121 µM) | >100 |  |  |  | >100 |  |  | 
